Experimental data from patent publication US8993606B2, “Oral formulations for treating metal overload” (FerroKin BioSciences, Inc., priority 2011, dated 2015).
Like-named read-outs stand apart in the source and are kept apart here.

Tests used:
[1] = Example 9: single-dose study in healthy human subjects 30-75 mg/kg and 20 mg/kg x 2 (PK); assay type: in vivo; settings: for Vd/F / AUC(0-inf) / AUC(0-t) / Cmax / half-life / Tmax / CL renal: human; for Vd/F / AUC(0-inf) / AUC(0-t) / Cmax / half-life / Tmax: plasma; for Vd/F: read-out: VZ/F; for CL renal: urine and plasma
Procedure: Example 9 was a single-dose escalating study in healthy volunteers. The objectives of the study were to assess the safety, tolerability, pharmacokinetic, and pharmacodynamics of single ascending doses of Compound 1. The doses tested were 30, 40, 50, 60, and 75 mg/kg once daily and a regimen of 20 mg/kg twice a day, which extended the range of doses evaluated. This Example confirms the earlier results obtained with higher dosage, as described in Example 7.
This was a single-center, double-blind, placebo-controlled study of ascending single oral doses of Compound 1. Six cohorts of 8 subjects (30 and 50 mg/kg single doses) or 5 subjects (40, 60, and 75 mg/kg single doses and 20 mg/kg×2 doses at 12 hour intervals) were dosed sequentially with Compound 1. Within each cohort, 7 or 4 subjects received Compound 1 and 1 subject received placebo. Subjects in the 20 mg/kg×2 doses cohort received a dose the evening prior to the study day (Day −1), approximately 12 hours prior to dosing on Day 1. The dose administered on Day −1 followed a 2-hour fast and that on Day 1 a 10-hour fast.
A total of 36 subjects were enrolled and all subjects completed the study. The 30 subjects that received active drug comprised the pharmacokinetic (PK) analysis population.
[…] subjects receiving a single dose, blood samples for the measurement of the total (free and iron bound complex) plasma concentrations of Compound 1 were collected before and 0.25, 0.5, 0.75, 1, 1.25, 1.5, 2, 2.5, 4, 8, 12, 24, 48, 72, and 96 hours after dosing. Subjects receiving two doses of 20 mg/kg had blood collected prior and 0.5, 1, 1.5, 2, and 2.5 hours after the first dose. After the second dose in the morning of Day 1, the sampling schedule was identical to that used for subjects receiving a single dose.
In all cohorts, urine was collected in pooled intervals of 0-4, 4-8, 8-12 and 12-24 hours after the dose on Day 1 for the analysis of Compound 1 concentrations.

[2] = test system: adult subjects with documented transfusional iron overload; assay: Safety: ongoing randomized open-label study, 16 or 32 mg/kg/day, transfusional iron overload; assay type: in vivo, human
Procedure: This study is an ongoing multicenter, randomized, open-label study of adult subjects with documented transfusional iron overload in need of chelation therapy. Subjects received investigational product for 24 weeks with an extension of 72 weeks for the evaluation of long-term safety and efficacy. Subjects were stratified according to transfusional iron intake (transfusion burden) then randomized to receive Compound 1 at 16 or 32 mg/kg/day. The investigational product was administered orally once daily for 24 weeks. At the conclusion of the 24-week dosing period, qualified subjects were allowed to continue receiving Compound 1 for an additional 72 weeks. Dose adjustments from 24 weeks onward are permitted if clinically indicated. Fifty-one subjects enrolled and completed the first 24 weeks of the study; 49 subjects entered the 72-week extension.

[3] = 20 mg/kg × 2 at 12-hour interval
[4] = oral, 20 mg/kg × 2, for the total dose of 40 mg/kg

COCCOCCOCCOc1cccc(C2=N[C@@](C)(C(=O)O)CS2)c1O [Compound 1, (S)-4,5-Dihydro-2-[2-hydroxy-3-(3,6,9-trioxadecyloxy)phenyl]-4-methyl-4-thiazolecarboxylate magnesium hydroxide]
CL/F ([1]; 20 mg/kg × 2, calculated with total dose of 40 mg/kg): 235 ± 96.2 mL/min | Ue(0-24) [1, 3]: 805 ± 208 mg | λZ [1, 3]: 0.0744 ± 0.0158 h⁻¹ | dose recovered in the urine over 24-hour post-dose period ([1]; 30 and 40 mg/kg): approximately 55% | Vd/F ([1]; oral, 20 mg/kg × 2, calculated with total dose of 40 mg/kg): 208 ± 136 L | AUC(0-inf) [1, 4]: 231 µg·h/mL | AUC(0-t) [1, 4]: 221 µg·h/mL | Cmax ([1]; oral, 20 mg/kg × 2 at 12-hour interval, for the second dose): 52.9 µg/mL | half-life ([1]; oral, 20 mg/kg × 2 at 12-hour interval, read-out: t1/2 (converted)): 9.64 ± 2.28 h | Tmax ([1]; oral, 20 mg/kg × 2 at 12-hour interval, second dose, median, read-out: tmax): 0.75 h | Tmax ([1]; oral, across cohorts, read-out: median values for Tmax, range): 1 to 1.5 h | half-life ([1]; oral, across cohorts, read-out: t1/2, range): 8.36 to 18.6 h | AUC(0-inf) ([1]; single oral dose 30 mg/kg): 161 µg·h/mL | AUC(0-t) ([1]; single oral dose 30 mg/kg): 155 µg·h/mL | Cmax ([1]; single oral dose 30 mg/kg): 68.2 µg/mL | Tmax ([1]; single oral dose 30 mg/kg, median, read-out: tmax): 1 h | Vd/F ([1]; single oral dose 30 mg/kg): 248 ± 58.8 L | half-life ([1]; single oral dose 30 mg/kg, read-out: t1/2 (converted)): 12.1 ± 3.05 h | AUC(0-inf) ([1]; single oral dose 40 mg/kg): 195 µg·h/mL | AUC(0-t) ([1]; single oral dose 40 mg/kg): 205 µg·h/mL | Cmax ([1]; single oral dose 40 mg/kg): 87.9 µg/mL | Tmax ([1]; single oral dose 40 mg/kg, median, read-out: tmax): 1.38 h | Vd/F ([1]; single oral dose 40 mg/kg): 542 ± 657 L | half-life ([1]; single oral dose 40 mg/kg, read-out: t1/2 (converted)): 18.6 ± 19.2 h | AUC(0-inf) ([1]; single oral dose 50 mg/kg): 236 µg·h/mL | AUC(0-t) ([1]; single oral dose 50 mg/kg): 254 µg·h/mL | Cmax ([1]; single oral dose 50 mg/kg): 91.7 µg/mL | Tmax ([1]; single oral dose 50 mg/kg, median, read-out: tmax): 1.5 h | Vd/F ([1]; single oral dose 50 mg/kg): 338 ± 272 L | half-life ([1]; single oral dose 50 mg/kg, read-out: t1/2 (converted)): 12.8 ± 7.66 h | AUC(0-inf) ([1]; single oral dose 60 mg/kg): 205 µg·h/mL | AUC(0-t) ([1]; single oral dose 60 mg/kg): 204 µg·h/mL | Cmax ([1]; single oral dose 60 mg/kg): 82.3 µg/mL | Tmax ([1]; single oral dose 60 mg/kg, median, read-out: tmax): 1.38 h | Vd/F ([1]; single oral dose 60 mg/kg): 454 ± 363 L | half-life ([1]; single oral dose 60 mg/kg, read-out: t1/2 (converted)): 11 ± 5.99 h | AUC(0-inf) ([1]; single oral dose 75 mg/kg): 247 µg·h/mL | AUC(0-t) ([1]; single oral dose 75 mg/kg): 244 µg·h/mL | Cmax ([1]; single oral dose 75 mg/kg): 84.6 µg/mL | Tmax ([1]; single oral dose 75 mg/kg, median, read-out: tmax): 1.38 h | Vd/F ([1]; single oral dose 75 mg/kg): 342 ± 83.6 L | half-life ([1]; single oral dose 75 mg/kg, read-out: t1/2 (converted)): 8.36 ± 3.84 h | CL renal ([1]; oral, 20 mg/kg × 2 at 12-hour interval, read-out: CLr): 131 ± 18.7 mL/min | CL renal ([1]; oral, not dependent upon dose, read-out: Renal clearance, average): ~140 mL/min | CL renal ([1]; single oral dose 30 mg/kg, read-out: CLr): 139 ± 13.2 mL/min | CL renal ([1]; single oral dose 40 mg/kg, read-out: CLr): 152 ± 18 mL/min | CL renal ([1]; single oral dose 50 mg/kg, read-out: CLr): 103 ± 16.2 mL/min | CL renal ([1]; single oral dose 60 mg/kg, read-out: CLr): 147 ± 28.2 mL/min | CL renal ([1]; single oral dose 75 mg/kg, read-out: CLr): 165 ± 42.7 mL/min | CL/F ([1]; single oral dose 30 mg/kg): 239 ± 17.2 mL/min | Fe(0-24) ([1]; single oral dose 30 mg/kg): 54.8 ± 8.99 % Dose | Ue(0-24) ([1]; single oral dose 30 mg/kg): 1,260 ± 255.3 mg | λZ ([1]; single oral dose 30 mg/kg): 0.0615 ± 0.0200 h⁻¹ | CL/F ([1]; single oral dose 40 mg/kg): 290 ± 73.8 mL/min | Fe(0-24) ([1]; single oral dose 40 mg/kg): 57.1 ± 8.60 % Dose | Ue(0-24) ([1]; single oral dose 40 mg/kg): 1,820 ± 397 mg | λZ ([1]; single oral dose 40 mg/kg): 0.0677 ± 0.0439 h⁻¹ | CL/F ([1]; single oral dose 50 mg/kg): 286 ± 56.1 mL/min | Fe(0-24) ([1]; single oral dose 50 mg/kg): 40.2 ± 8.69 % Dose | Ue(0-24) ([1]; single oral dose 50 mg/kg): 1,500 ± 434 mg | λZ ([1]; single oral dose 50 mg/kg): 0.0664 ± 0.0292 h⁻¹ | CL/F ([1]; single oral dose 60 mg/kg): 435 ± 117.0 mL/min | Fe(0-24) ([1]; single oral dose 60 mg/kg): 33.7 ± 8.37 % Dose | Ue(0-24) ([1]; single oral dose 60 mg/kg): 1,713 ± 480 mg | λZ ([1]; single oral dose 60 mg/kg): 0.0786 ± 0.0393 h⁻¹ | CL/F ([1]; single oral dose 75 mg/kg): 540 ± 237 mL/min | Fe(0-24) ([1]; single oral dose 75 mg/kg): 35.0 ± 15.1 % Dose | Ue(0-24) ([1]; single oral dose 75 mg/kg): 2,199 ± 1,189 mg | λZ ([1]; single oral dose 75 mg/kg): 0.0943 ± 0.0383 h⁻¹ | dose recovered in the urine over 24-hour post-dose period ([1]; the 3 higher doses (50, 60, 75 mg/kg)): approximately 38% | TEAE headache ([2]; 5 subjects): 9.8% | TEAE increased transaminases ([2]; 8 subjects): 15.7% | Treatment-related gastrointestinal TEAEs ([2]; 17 subjects): 33.3% | subjects with at least 1 related TEAE ([2]; 31/51 subjects): 61% | Elevations in transaminases ([2]; 72 week treatment period): not significant | Mean serum creatinine ([2]; 72 week treatment period, remained in the normal range): did not change from baseline | TEAE diarrhea ([2]; N=3): 5.9% | TEAE flatulence ([2]; N=6): 11.8% | Any TEAE ([2]; Total (N = 51)): 49 (96.1%) N (%) | Creatinine increase >33% and creatinine <=ULN at 2 consecutive post-baseline visits ([2]; Total (N = 51)): 2 (3.9) N (%) | Creatinine increase >33% and creatinine >ULN at 2 consecutive post-baseline visits ([2]; Total (N = 51)): 0 N (%) | Creatinine increase and creatinine >ULN at 2 consecutive post-baseline visits ([2]; Total (N = 51)): 1 (2.0) N (%) | Serious TEAE ([2]; Total (N = 51)): 5 (9.8%) N (%) | TEAE Related to Investigational Product ([2]; Total (N = 51)): 31 (60.8%) N (%) | TEAE Requiring Discontinuation of Study Drug ([2]; Total (N = 51)): 14 (27.5%) N (%) | serum creatinine levels ([2]; as of Week 48): no trends | tolerability ([2]; doses tested (8-50 mg/kg/day)): generally well tolerated | SAEs ([2]; in four subjects, none judged related to treatment): 10 SAEs | severity of all related TEAEs ([2]; in vivo): mild to moderate
